Laboratory results published in PubChem BioAssay AID1996.
Values after ≈ are worked out from the molar mass of the structure shown.

Details: buffer; pH 7.4; 200.0 µM

Which solubility kinetic does the source give for `CCc1ccc(OCCOC(=O)Nc2ccccc2)cc1` here?
The solubility kinetic was under 0.6 µg/mL.

For `COc1ccc(N2CCN(C(=O)c3cc4c(s3)CCCCC4)CC2)cc1`, which solubility kinetic is on record?
The solubility kinetic was 5.3 µg/mL (≈ 14.3 µM).

For `COc1ccc(CCOC(=O)c2cccc(NC(C)=O)c2)cc1`, which solubility kinetic is on record?
The solubility kinetic was over 47 µg/mL.

Which solubility kinetic does the source give for `Cc1cccc(NC(=O)c2cccnc2)c1C` here?
Its solubility kinetic is 24.1 µg/mL (≈ 107 µM).

For `CSc1cccc(NC(=O)CNS(=O)(=O)c2ccccc2)c1`, which solubility kinetic is on record?
The solubility kinetic was over 50.5 µg/mL.

Which solubility kinetic does the source give for `COc1ccc(S(=O)(=O)N2CCCCC2)cc1NC(=O)CCNC(=O)c1ccc(Cl)cc1` here?
The solubility kinetic was 4.3 µg/mL (≈ 8.96 µM).

With `CCOc1ccc(NC(=O)NC(=O)N(C(C)C)S(C)(=O)=O)cc1` as the compound, how does the solubility kinetic read?
Its solubility kinetic is 43.1 µg/mL (≈ 126 µM).

Which solubility kinetic does the source give for `Cc1onc(-c2c(F)cccc2Cl)c1C(=O)NC1CC1` here?
Its solubility kinetic is over 44.2 µg/mL.

Which solubility kinetic does the source give for `S=C(NCc1ccccc1)NCc1ccccc1Cl` here?
Its solubility kinetic is 28.4 µg/mL (≈ 97.7 µM).

Which solubility kinetic does the source give for `CCCCCOC(=O)NC1CCS(=O)(=O)C1` (centres undefined) here?
The solubility kinetic was over 37.4 µg/mL.

With `COc1cc([N+](=O)[O-])ccc1NC(=O)NCc1ccco1` as the compound, how does the solubility kinetic read?
The solubility kinetic was 13.8 µg/mL (≈ 47.4 µM).

For `Cc1ccc(CN2CC(C(=O)Nc3ncccc3C)CC2=O)cc1` (centres undefined), which solubility kinetic is on record?
The solubility kinetic was over 48.5 µg/mL.

With `O=C(COc1ccc(Cl)cc1)NCCc1cnc[nH]1` as the compound, how does the solubility kinetic read?
The solubility kinetic was over 42 µg/mL.

For `O=C(Nc1scc(-c2ccccc2)c1C(=O)O)c1ccccc1Cl`, which solubility kinetic is on record?
Its solubility kinetic is 52.6 µg/mL (≈ 147 µM).

For `Cc1cccc(C(=O)O/N=C(/c2ccccc2)c2ccncc2)c1`, which solubility kinetic is on record?
The solubility kinetic was under 0.3 µg/mL.

For `CC(=O)Cn1cnc2c(sc3nc(C)cc(C)c32)c1=O`, which solubility kinetic is on record?
Its solubility kinetic is 7.2 µg/mL (≈ 25.1 µM).

For `Cc1cnc(NC(=O)CC2OC(=O)c3ccccc32)s1` (centres undefined), which solubility kinetic is on record?
Its solubility kinetic is 6.5 µg/mL (≈ 22.5 µM).

For `O=C1CC2c3ccccc3C1C1C(=O)N(CCO)C(=O)C21` (centres undefined), which solubility kinetic is on record?
The solubility kinetic was over 42.8 µg/mL.

For `C=CCNC(=O)c1cc2cccc(OC)c2oc1=O`, which solubility kinetic is on record?
The solubility kinetic was over 38.9 µg/mL.

For `COC(=O)CC1C(=O)NC2CCCCC2N1C(=O)CCl` (centres undefined), which solubility kinetic is on record?
Its solubility kinetic is over 45.4 µg/mL.

For `Cn1c(COc2ccccc2)nc2ccccc21`, which solubility kinetic is on record?
The solubility kinetic was 23.2 µg/mL (≈ 97.4 µM).

For `Cc1ccccc1CNC(=O)C1CCC(=O)N(C2CC2)C1` (centres undefined), which solubility kinetic is on record?
Its solubility kinetic is 36.8 µg/mL (≈ 129 µM).

For `Cc1noc(C)c1-c1nc(CS(=O)(=O)c2ccccc2)no1`, which solubility kinetic is on record?
The solubility kinetic was 8 µg/mL (≈ 25.1 µM).

With `Cc1ccc(NC(=S)N(Cc2ccccc2)Cc2cccs2)c(C)c1` as the compound, how does the solubility kinetic read?
Its solubility kinetic is 0.8 µg/mL (≈ 2.18 µM).

With `CC1(C)CC(=O)C2=C(C1)OC(N)=C([N+](=O)[O-])C2c1ccc(F)cc1` (centres undefined) as the compound, how does the solubility kinetic read?
The solubility kinetic was over 49.8 µg/mL.

Which solubility kinetic does the source give for `COc1cc(OC)cc(C(=O)Nc2cccc3nc(C)ccc23)c1` here?
Its solubility kinetic is 2.9 µg/mL (≈ 9 µM).

For `COc1ccc(C(=O)NCC2CCCCC2)cc1S(=O)(=O)N1CCOCC1`, which solubility kinetic is on record?
The solubility kinetic was over 59.5 µg/mL.

With `CN(CC(=O)Nc1ccc(F)cc1)C(=O)Cc1ccsc1` as the compound, how does the solubility kinetic read?
The solubility kinetic was over 46 µg/mL.

Which solubility kinetic does the source give for `Cc1csc(NC(=O)C2CSC3(C)CCC(=O)N23)n1` (centres undefined) here?
The solubility kinetic was over 44.6 µg/mL.

For `CN(C)C(=O)C1CC(=O)OC12CCCCC2` (centres undefined), which solubility kinetic is on record?
Its solubility kinetic is 28.2 µg/mL (≈ 125 µM).

Which solubility kinetic does the source give for `Cc1cc(C)c2c(=O)c(C#N)coc2c1` here?
The solubility kinetic was 26.4 µg/mL (≈ 133 µM).

Which solubility kinetic does the source give for `Cc1ccc(C(=O)Nc2ccc(Nc3ccccc3)cc2)c(Cl)c1` here?
Its solubility kinetic is under 0.4 µg/mL.

With `CCOc1cccc(NC(=O)/C(C#N)=C\c2cccnc2)c1` as the compound, how does the solubility kinetic read?
Its solubility kinetic is 30.4 µg/mL (≈ 104 µM).

With `O=C(Nc1ccc(Cl)cc1)c1csc(Cc2ccccc2)n1` as the compound, how does the solubility kinetic read?
Its solubility kinetic is 1.1 µg/mL (≈ 3.35 µM).

For `OCc1nc2ccc(Cl)cc2[nH]1`, which solubility kinetic is on record?
The solubility kinetic was over 27.4 µg/mL.

For `Cn1c(N)c(C(=O)COC(=O)c2ccc3ccccc3c2)c(=O)n(C)c1=O`, which solubility kinetic is on record?
Its solubility kinetic is 3.8 µg/mL (≈ 10.3 µM).

For `O=C(NCCc1ccccc1)c1cc([N+](=O)[O-])ccc1N1CCOCC1`, which solubility kinetic is on record?
The solubility kinetic was 53.2 µg/mL (≈ 150 µM).

With `CCOC(=O)c1cc2cc(OCc3ccccc3)ccc2nc1C` as the compound, how does the solubility kinetic read?
Its solubility kinetic is under 0.7 µg/mL.

Which solubility kinetic does the source give for `Cc1ccc(C2(c3noc(CN(C)CCO)n3)CCCC2)cc1` here?
Its solubility kinetic is 39.5 µg/mL (≈ 125 µM).

For `Cc1cc(C)nc(NS(=O)(=O)c2ccc(CC(C)C)cc2)c1`, which solubility kinetic is on record?
Its solubility kinetic is 28.9 µg/mL (≈ 90.8 µM).

With `O=C(O)CCn1c(=O)oc2cc(S(=O)(=O)N3CCCC3)ccc21` as the compound, how does the solubility kinetic read?
Its solubility kinetic is over 51.1 µg/mL.

For `CCc1sc(C(=O)Nc2cccnc2)cc1Br`, which solubility kinetic is on record?
The solubility kinetic was 3.9 µg/mL (≈ 12.5 µM).

Which solubility kinetic does the source give for `Cc1nc(-c2cccs2)ccc1C(=O)O` here?
Its solubility kinetic is over 32.9 µg/mL.

For `COc1ccc(NC(=O)COC(=O)Cc2c[nH]c3ccccc23)cc1Cl`, which solubility kinetic is on record?
The solubility kinetic was 4.1 µg/mL (≈ 11 µM).

Which solubility kinetic does the source give for `COc1ccc(C(=O)NCCNC(=O)c2cnccn2)cc1OC` here?
The solubility kinetic was over 49.6 µg/mL.

Which solubility kinetic does the source give for `COC(=O)[C@H](Cc1ccccc1)NC(=O)N1CCCCC1` here?
The solubility kinetic was over 43.6 µg/mL.

For `C=CCN1C(=O)C(C)(C)N(C(=O)c2cccc([N+](=O)[O-])c2)c2ccccc21`, which solubility kinetic is on record?
The solubility kinetic was 23.5 µg/mL (≈ 64.3 µM).

With `COc1ccc(OCC(=O)Nc2ccc(N3CCC(C)CC3)cc2)cc1` as the compound, how does the solubility kinetic read?
Its solubility kinetic is under 0.4 µg/mL.

Which solubility kinetic does the source give for `COc1ccc(N2C(=O)C3C(C2=O)C3(c2ccccc2)c2ccccc2)cc1` (centres undefined) here?
Its solubility kinetic is 0.9 µg/mL (≈ 2.44 µM).

With `CCOC(=O)Cc1nc(-c2cccc(C(F)(F)F)c2)no1` as the compound, how does the solubility kinetic read?
Its solubility kinetic is 7.6 µg/mL (≈ 25.3 µM).

For `O=C(Nc1ccccc1Cl)NC1(C(=O)N2CCC(O)CC2)CCCCC1`, which solubility kinetic is on record?
Its solubility kinetic is over 57 µg/mL.

Which solubility kinetic does the source give for `CCN1C(=O)N(CC)c2cccc3cccc1c23` here?
Its solubility kinetic is 1.6 µg/mL (≈ 6.66 µM).

Which solubility kinetic does the source give for `CC(=O)N1CCN(C(=O)CNC(=O)c2ccc(Br)o2)CC1` here?
Its solubility kinetic is over 53.7 µg/mL.

For `Cc1ccc(CC2CC(=O)N(c3cc(C)ccc3C)C2=O)cc1` (centres undefined), which solubility kinetic is on record?
Its solubility kinetic is 33.9 µg/mL (≈ 110 µM).

Which solubility kinetic does the source give for `CCOC(=O)/C(C#N)=C/Nc1ccsc1C(=O)OC` here?
Its solubility kinetic is under 0.3 µg/mL.

With `CNS(=O)(=O)c1ccc(N2CCCC2)c([N+](=O)[O-])c1` as the compound, how does the solubility kinetic read?
The solubility kinetic was over 42.8 µg/mL.

For `Cc1ccc2cc(C#N)c(N3CCN(C(=O)c4ccccc4)CC3)nc2c1`, which solubility kinetic is on record?
The solubility kinetic was 4.1 µg/mL (≈ 11.5 µM).

For `Cc1ccc(NC(=S)N2CCC(NC(=O)c3ccco3)CC2)cc1C`, which solubility kinetic is on record?
The solubility kinetic was 39.2 µg/mL (≈ 110 µM).

Which solubility kinetic does the source give for `COc1ccc(OC)c(/C=C/C(=O)OCC(=O)NCc2ccccc2)c1` here?
Its solubility kinetic is 15.1 µg/mL (≈ 42.5 µM).
